Activity calls are given as the source filed them.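 How the source made its calls: active means parasite count per well reduced by over 3 SD from the mean, with host cell number above 80% of untreated; inactive means the rest.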

A word on the AC50: it is the concentration giving half of the maximal activity seen.

The experiment concerns L. donovani amastigotes in THP-1 macrophages, DAPI imaging, 72 h. The experiment is described as follows: antileishmanial activity in infected macrophages – imaging, THP-1 host macrophages, single concentration (AID 977614).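 Further: signal is the parasite per host cell ratio from DAPI stained kinetoplasts and nuclei.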
For `C[C@H]1CN([C@@H](C)CO)C(=O)CCCn2cc(nn2)CO[C@@H]1CN(C)C(=O)Oc1ccc2ccccc2c1`, the AC50 is > 10 µM (inactive).
On to `C/C=C/c1ccc([C@@H]2[C@@H](CO)N(C(C)=O)[C@H]2CN(CC)C(=O)CN(C)C)cc1`, for which the AC50 is > 10 µM (inactive).
The figure for `Cc1noc(C)c1NC(=O)N(C)C[C@H]1OCc2cnnn2CCCC(=O)N([C@H](C)CO)C[C@H]1C` is > 10 µM (inactive); for `CCN(C[C@@H]1[C@@H](c2ccccc2)[C@@H](CO)N1C(C)=O)C(=O)NC1CCCC1` it is > 10 µM (inactive); for `C[C@@H]1CN([C@H](C)CO)C(=O)CCCn2nncc2CO[C@@H]1CN(C)S(=O)(=O)c1ccc(Oc2ccccc2)nc1` it is > 10 µM (inactive).
The figure for `C[C@H]1CN([C@@H](C)CO)C(=O)CCCn2nncc2CO[C@@H]1CN(C)Cc1ccc2c(c1)OCCN2C` is > 10 µM (inactive).
Take `Cc1noc(C)c1S(=O)(=O)N(C)C[C@@H]1OCc2cn(nn2)CCCC(=O)N([C@@H](C)CO)C[C@@H]1C`: the AC50 is > 10 µM (inactive).
On to `O=C(NC[C@H]1[C@@H](c2ccccc2)[C@H](CO)N1Cc1cccnc1)c1ccccn1`, for which the AC50 is > 10 µM (inactive).
For `O=C(CC(F)(F)F)N1C[C@H]2[C@@H](c3ccccc31)[C@H](CO)N2Cc1cccnc1`, the AC50 was > 10 µM (inactive).
As for `CC(C)N(C[C@H]1[C@@H](c2ccccc2)[C@H](CO)N1S(C)(=O)=O)C(=O)CN(C)C`, the AC50 is > 10 µM (inactive).
Take `C[C@H]1CN([C@@H](C)CO)C(=O)CCCn2nncc2CO[C@H]1CN(C)C(=O)Nc1cccc(Oc2ccccn2)c1`: the AC50 is > 10 µM (inactive).
For `CC(=O)N1[C@H](CO)[C@@H](c2ccccc2)[C@H]1CN(C)S(=O)(=O)c1ccccc1`, the AC50 is > 10 µM (inactive).
Consider `C[C@H]1CN([C@@H](C)CO)C(=O)CCCn2cc(nn2)CO[C@H]1CN(C)S(=O)(=O)c1cccc(C#N)c1`, for which the AC50 was > 10 µM (inactive).
Consider `Cc1cccc(S(=O)(=O)N2C[C@H]3[C@@H](c4ccccc42)[C@@H](CO)N3C(=O)c2ccccc2)c1`, for which the AC50 was > 10 µM (inactive).
The figure for `Cc1ccc(S(=O)(=O)N2C[C@H]3[C@@H](c4ccccc42)[C@@H](CO)N3Cc2cccnc2)cc1` is > 10 µM (inactive); for `O=C(C1CCOCC1)N1C[C@H]2[C@@H](c3ccccc31)[C@H](CO)N2C(=O)Cc1ccccn1` it is > 10 µM (inactive); for `COc1ccccc1-c1ccc([C@H]2[C@@H](CO)N(C(C)=O)[C@@H]2CN(C)C(C)=O)cc1` it is > 10 µM (inactive).
With `O=S(=O)(c1ccc(F)cc1)N1C[C@H]2[C@@H](c3ccccc31)[C@H](CO)N2Cc1ccccc1Cl`, the AC50 is > 10 µM (inactive).
For `C/C=C/c1ccc([C@H]2[C@@H](CO)N(S(C)(=O)=O)[C@@H]2CN(C(C)=O)C(C)C)cc1`, the AC50 was > 10 µM (inactive).
Regarding `C[C@@H]1CN([C@@H](C)CO)C(=O)CCCn2nncc2CO[C@H]1CN(C)CC1CCCCC1`, the AC50 is > 10 µM (inactive).
Consider `O=C(Nc1ccccc1Cl)N1C[C@@H]2[C@H](c3ccccc31)[C@H](CO)N2C(=O)c1cccnc1`, for which the AC50 was > 10 µM (inactive).
In the case of `CN(C[C@H]1N[C@@H](CO)[C@H]1c1ccc(-c2ccc(F)cc2)cc1)C(=O)C1CCC1`, the AC50 is > 10 µM (inactive).
On to `COCC(=O)NC[C@H]1[C@H](c2ccccc2)[C@@H](CO)N1C(=O)c1ccccc1`, for which the AC50 was > 10 µM (inactive).
The figure for `O=C(NC[C@@H]1[C@H](c2ccccc2)[C@H](CO)N1Cc1ccccn1)C1CCCC1` is > 10 µM (inactive).
`O=C(NC[C@@H]1[C@@H](c2ccccc2)[C@@H](CO)N1C(=O)Cc1ccncc1)C1CCC1`: the AC50 is > 10 µM (inactive).
On to `C[C@@H]1CN([C@H](C)CO)C(=O)CCCn2nncc2CO[C@@H]1CN(C)C(=O)CCC(F)(F)F`, for which the AC50 was > 10 µM (inactive).
Take `COCC(=O)N1[C@H](CO)[C@@H]2c3ccccc3NC[C@@H]21`: the AC50 was > 10 µM (inactive).
For `CCC(=O)NC[C@@H]1[C@@H](c2ccc(-c3cccc(F)c3)cc2)[C@@H](CO)N1CC1CC1`, the AC50 was > 10 µM (inactive).
Regarding `C[C@@H]1CN([C@@H](C)CO)C(=O)CCCn2nncc2CO[C@H]1CN(C)Cc1ccc(C(=O)Nc2ccccc2N)cc1`, the AC50 is > 10 µM (inactive).
For `Cc1cccc(S(=O)(=O)N2C[C@H]3[C@@H](c4ccccc42)[C@H](CO)N3CC2CCCC2)c1`, the AC50 is > 10 µM (inactive).
Consider `CCC(=O)N1[C@H](CO)[C@@H]2c3ccccc3N(C(=O)Nc3ccc(Cl)cc3)C[C@@H]21`, for which the AC50 is > 10 µM (inactive).
The figure for `C[C@@H]1CN([C@@H](C)CO)C(=O)CCCn2nncc2CO[C@@H]1CN(C)Cc1cccc2c1OCCCO2` is > 10 µM (inactive); for `C[C@@H]1CN([C@H](C)CO)C(=O)CCCn2nncc2CO[C@H]1CN(C)S(=O)(=O)c1ccc(Oc2ccccc2)nc1` it is > 10 µM (inactive); for `C[C@H]1CN([C@@H](C)CO)C(=O)CCCn2nncc2CO[C@H]1CN(C)C(=O)c1ccc(N2CCN(C)CC2)cc1` it is > 10 µM (inactive).
The figure for `C/C=C/c1ccc([C@H]2[C@@H](CO)N[C@@H]2CN(C(=O)c2ccccc2F)C(C)C)cc1` is > 10 µM (inactive).
As for `C/C=C/c1ccc([C@H]2[C@@H](CO)N(C(C)=O)[C@H]2CN(C(C)=O)C2CCCC2)cc1`, the AC50 is > 10 µM (inactive).
With `COc1ccc(CN(C)C[C@@H]2OCc3cnnn3CCCC(=O)N([C@H](C)CO)C[C@@H]2C)cc1`, the AC50 was > 10 µM (inactive).
The figure for `OC[C@@H]1[C@H](c2ccc(-c3ccc(F)cc3)cc2)[C@H](CNC2CCCC2)N1CCC(F)(F)F` is > 10 µM (inactive); for `Cc1ccc(S(=O)(=O)N2C[C@H]3[C@@H](c4ccccc42)[C@H](CO)N3Cc2cccnc2)cc1` it is > 10 µM (inactive).
For the molecule `C[C@H]1CN([C@@H](C)CO)C(=O)CCCn2nncc2CO[C@@H]1CN(C)C(=O)CCC(F)(F)F`, the AC50 was > 10 µM (inactive).
The figure for `CC(=O)N1[C@@H](CO)[C@@H](c2ccccc2)[C@@H]1CNC(=O)CN1CCOCC1` is > 10 µM (inactive); for `O=C(CC(F)(F)F)N1C[C@H]2[C@@H](c3ccccc31)[C@H](CO)N2C(=O)c1ccncc1` it is > 10 µM (inactive).
The figure for `COc1ccc(C(=O)N2C[C@H]3[C@@H](c4ccccc42)[C@@H](CO)N3C(=O)Cc2ccccn2)cc1` is > 10 µM (inactive); for `Cc1cccc(S(=O)(=O)N2C[C@@H]3[C@H](c4ccccc42)[C@H](CO)N3Cc2ccc3c(c2)OCO3)c1` it is > 10 µM (inactive).
On to `CCN(C[C@H]1[C@H](c2ccccc2)[C@H](CO)N1CC1CC1)C(=O)c1ccccn1`, for which the AC50 is > 10 µM (inactive).
The figure for `CCCNC(=O)N(Cc1cccnc1)C[C@H]1N[C@H](CO)[C@@H]1c1ccccc1` is > 10 µM (inactive); for `O=C(NC[C@H]1[C@H](c2ccccc2)[C@@H](CO)N1Cc1cccnc1)c1ccccn1` it is > 10 µM (inactive); for `CCN(C[C@@H]1[C@H](c2ccccc2)[C@@H](CO)N1CC1CC1)C(=O)c1ccccn1` it is > 10 µM (inactive).
Take `CCCNC(=O)N(C)C[C@@H]1[C@@H](c2ccccc2)[C@H](CO)N1C(=O)c1ccccc1`: the AC50 was > 10 µM (inactive).
In the case of `O=C(C1CCC1)N1C[C@H]2[C@@H](c3ccccc31)[C@@H](CO)N2Cc1ccccc1`, the AC50 was > 10 µM (inactive).
Turning to `O=C(c1ccccn1)N1C[C@H]2[C@@H](c3ccccc31)[C@H](CO)N2C(=O)Nc1ccccc1Cl`, the AC50 is > 10 µM (inactive).
`Cc1noc(C)c1NC(=O)N(C)C[C@@H]1OCc2cn(nn2)CCCC(=O)N([C@@H](C)CO)C[C@H]1C`: the AC50 was > 10 µM (inactive).
Regarding `CCN(C[C@@H]1N[C@@H](CO)[C@@H]1c1ccccc1)C(=O)c1ccncc1`, the AC50 is > 10 µM (inactive).
Regarding `O=C(CN1CCOCC1)NC[C@@H]1N[C@@H](CO)[C@@H]1c1ccc(-c2ccccc2)cc1`, the AC50 was > 10 µM (inactive).
As to `C[C@@H]1CN([C@@H](C)CO)C(=O)CCCn2nncc2CO[C@@H]1CN(C)C(=O)Nc1ccccc1C(F)(F)F`, the AC50 was > 10 µM (inactive).
For the molecule `CCC(=O)N(CC(C)C)C[C@H]1[C@H](c2ccccc2)[C@@H](CO)N1C(=O)C1CCC1`, the AC50 is > 10 µM (inactive).
The figure for `C/C=C/c1ccc([C@@H]2[C@@H](CN(C)C(C)=O)N(C(=O)NC(C)C)[C@H]2CO)cc1` is > 10 µM (inactive).
As to `OC[C@@H]1[C@H]2c3ccccc3NC[C@H]2N1Cc1cccnc1`, the AC50 was > 10 µM (inactive).
On to `COc1ccccc1NC(=O)N1C[C@H]2[C@@H](c3ccccc31)[C@H](CO)N2C(=O)C1CCCC1`, for which the AC50 is > 10 µM (inactive).
For `O=C(Nc1cccc(Cl)c1)N1C[C@@H]2[C@H](c3ccccc31)[C@H](CO)N2Cc1cccnc1`, the AC50 was > 10 µM (inactive).
As for `OC[C@@H]1[C@@H]2c3ccccc3NC[C@@H]2N1Cc1cccnc1`, the AC50 is > 10 µM (inactive).
In the case of `CC(=O)N1C[C@H]2[C@@H](c3ccccc31)[C@@H](CO)N2Cc1ccc(Cl)cc1`, the AC50 is > 10 µM (inactive).
The figure for `C/C=C/c1ccc([C@@H]2[C@@H](CO)N[C@@H]2CN(CC(C)C)C(=O)c2ccccn2)cc1` is > 10 µM (inactive).
Turning to `C[C@H]1CN([C@@H](C)CO)C(=O)CCCn2cc(nn2)CO[C@H]1CN(C)C(=O)c1ccc(N2CCN(C)CC2)cc1`, the AC50 is > 10 µM (inactive).
On to `O=C(c1ccc2c(c1)OCO2)N1C[C@H]2[C@@H](c3ccccc31)[C@@H](CO)N2Cc1cccnc1`, for which the AC50 is > 10 µM (inactive).
The figure for `Cc1noc(C)c1NC(=O)N(C)C[C@H]1OCc2cnnn2CCCC(=O)N([C@@H](C)CO)C[C@H]1C` is > 10 µM (inactive); for `Cc1noc(C)c1S(=O)(=O)N(C)C[C@@H]1OCc2cn(nn2)CCCC(=O)N([C@H](C)CO)C[C@@H]1C` it is > 10 µM (inactive); for `COc1ccccc1C(=O)N1C[C@H]2[C@@H](c3ccccc31)[C@H](CO)N2C(=O)Cc1ccccc1` it is > 10 µM (inactive).
Turning to `COc1ccccc1CN1[C@H](CO)[C@H]2c3ccccc3N(C(=O)C3CCOCC3)C[C@H]21`, the AC50 is > 10 µM (inactive).
